Source: EP4737473A1, “NOVEL COMPLEMENT INHIBITOR AND PREPARATION, USE AND PRODUCT THEREOF” (Liu, Xiaorong, priority 2023, dated 2025)
pIC50, pKd: −log10 of the molar value. Positions of bridges follow the written chain, without caps; N, C: chain ends. Non-standard residues stand in square brackets, D forms with d. Residues, ends and D or L forms follow the SMILES beside them. ξ: configuration not given here. Bpa = N[C@@H](Cc1ccc(C(=O)c2ccccc2)cc1)C(=O)O; Trp(7-aza) = N[C@@H](Cc1c[nH]c2ncccc12)C(=O)O; Trp(1-Me) = Cn1cc(C[C@H](N)C(=O)O)c2ccccc21; ξTrp(5-F) = NC(Cc1c[nH]c2ccc(F)cc12)C(=O)O; 2Nal = N[C@@H](Cc1ccc2ccccc2c1)C(=O)O; Api = NC1(C(=O)O)CCNCC1; Abu = CC[C@H](N)C(=O)O; Aib = CC(C)(N)C(=O)O

What was measured:
[1] = target: T1, His-tag recombinant human C3 protein (Homo sapiens, UniProt P01024); assay: BLI affinity assay (Bio-Layer Interferometry, Ni-NTA biosensor, ForteBio Octet); format: binding; parameters: purchased Sino Biological Inc; details: for pKd: 60s association, 90s dissociation, PBS pH 8.0; for kon: association rate constant; for koff: dissociation rate constant, read-out: kdis
Description: The BLI affinity assay was used to verify the effects of the cyclic peptides of the disclosure and the control product.
BLI refers to Bio-Layer Interferometry. The principle is: after visible light is emitted from the spectrometer, two reflected spectra are formed at the two interfaces of the optical film layer at the end of the sensor, and an interference spectrum is formed. Any change in film thickness caused by molecular binding can be reflected by the displacement value of the interference spectrum.
Subsequently, a 90s dissociation step was performed after the 60s association phase to obtain the Kd value by fitting the curve.
The stock solution was dissolved in 15% acetonitrile, and the working solution was serially diluted with PBS at pH 8.0.

[2] = system: classical pathway complement; assay: Classical pathway complement inhibition assay (ELISA, human plasma); format: biochemical; details: human plasma 1:40 in VBS, 15 minutes at room temperature
Method: The half-inhibitory concentration values of SEQ ID NO.1-6 were evaluated by the classical pathway complement inhibition assay. The association constant (Ka), dissociation constant (Kd), and equilibrium dissociation constant (KD) were determined by surface plasmon resonance (SPR) assay.
The complement inhibition assay can be performed with reference to the following steps: Evaluation was performed by an established enzyme-linked immunosorbent assay (ELISA). Under normal ambient temperature, 96-well plates were coated with 50 µL of 1% ovalbumin in PBS for 2 hours. […] After washing, complement activation (C3b/iC3b/C3d bound to immune complexes) was detected using HRP-conjugated goat α-human C3 antibody (1:1000; MP Biomedicals). The reaction was performed using HRP substrate (0.05% ABTS and 0.1% H2O2 dissolved in 0.1 M sodium citrate, pH 4.2), and the absorbance was read at 405 nm using a VICTOR multi-label plate reader (PerkinElmer, Waltham, MA). 100% complement activation was obtained in the absence of the C3 peptide inhibitor, and the absorbance data obtained at 405 nm were converted to the percentage of complement inhibition. […] Surface plasmon resonance (SPR) experiments were performed using a Biacore 3000 instrument (GE Healthcare, Piscataway Town, NJ), and the binding affinity and kinetic characteristics of the cyclic peptides were evaluated by SPR.

C3 protein = C3 protein (Homo sapiens, UniProt P01024); assay: MST affinity assay (microscale thermophoresis, Monolith NT.115); format: binding; details: polypeptide about 200 nM, 0.5×PBS, 15% ACN, maximum protein concentration 0.25 µM
[3] = target: C3 in human plasma (human) (UniProt P01024); assay: cell-based or functional assay
Chain of C3 in human plasma (human) (P01024 23-1663): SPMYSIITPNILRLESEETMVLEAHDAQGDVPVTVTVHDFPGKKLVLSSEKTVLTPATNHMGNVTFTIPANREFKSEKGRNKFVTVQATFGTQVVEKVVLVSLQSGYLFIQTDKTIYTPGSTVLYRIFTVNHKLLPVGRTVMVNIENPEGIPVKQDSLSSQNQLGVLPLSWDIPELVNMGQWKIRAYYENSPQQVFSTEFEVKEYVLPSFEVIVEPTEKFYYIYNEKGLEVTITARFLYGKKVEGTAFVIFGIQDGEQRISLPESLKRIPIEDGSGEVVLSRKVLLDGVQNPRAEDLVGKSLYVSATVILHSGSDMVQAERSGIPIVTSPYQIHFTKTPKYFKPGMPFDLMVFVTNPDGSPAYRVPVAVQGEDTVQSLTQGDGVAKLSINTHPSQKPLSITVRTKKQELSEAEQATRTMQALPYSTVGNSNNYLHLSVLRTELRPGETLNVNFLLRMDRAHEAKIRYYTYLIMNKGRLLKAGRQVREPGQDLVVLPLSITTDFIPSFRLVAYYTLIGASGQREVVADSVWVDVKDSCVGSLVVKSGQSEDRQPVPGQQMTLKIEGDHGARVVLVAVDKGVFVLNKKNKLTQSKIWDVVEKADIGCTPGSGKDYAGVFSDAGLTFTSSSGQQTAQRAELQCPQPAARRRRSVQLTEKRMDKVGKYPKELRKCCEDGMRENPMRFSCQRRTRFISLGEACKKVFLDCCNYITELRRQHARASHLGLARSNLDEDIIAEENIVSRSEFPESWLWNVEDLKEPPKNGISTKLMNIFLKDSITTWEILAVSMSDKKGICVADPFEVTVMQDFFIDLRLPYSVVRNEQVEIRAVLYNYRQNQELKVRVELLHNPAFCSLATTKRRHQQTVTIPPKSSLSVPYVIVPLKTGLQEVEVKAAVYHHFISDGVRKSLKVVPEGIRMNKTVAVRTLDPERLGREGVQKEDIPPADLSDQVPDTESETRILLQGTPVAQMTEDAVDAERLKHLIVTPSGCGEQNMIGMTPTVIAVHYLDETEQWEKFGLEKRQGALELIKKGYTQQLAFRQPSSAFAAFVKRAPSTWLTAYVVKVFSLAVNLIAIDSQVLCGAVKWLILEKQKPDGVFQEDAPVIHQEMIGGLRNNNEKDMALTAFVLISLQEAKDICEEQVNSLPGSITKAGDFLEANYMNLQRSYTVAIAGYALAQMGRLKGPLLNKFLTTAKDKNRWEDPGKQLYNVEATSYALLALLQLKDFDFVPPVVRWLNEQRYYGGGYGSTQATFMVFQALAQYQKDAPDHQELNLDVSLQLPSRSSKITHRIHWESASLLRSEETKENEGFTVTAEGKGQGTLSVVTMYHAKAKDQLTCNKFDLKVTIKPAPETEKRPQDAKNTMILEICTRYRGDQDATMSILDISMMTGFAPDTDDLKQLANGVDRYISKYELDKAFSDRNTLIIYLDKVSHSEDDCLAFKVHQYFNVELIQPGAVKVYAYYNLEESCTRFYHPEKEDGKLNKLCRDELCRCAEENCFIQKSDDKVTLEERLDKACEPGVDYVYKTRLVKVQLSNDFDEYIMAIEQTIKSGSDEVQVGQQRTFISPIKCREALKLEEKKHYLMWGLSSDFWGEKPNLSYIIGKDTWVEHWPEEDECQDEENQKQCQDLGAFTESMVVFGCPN

[4] = target: T1, His-tag recombinant human C3 protein; assay: BLI (ForteBio Octet), His-tag C3 on Ni-NTA biosensor, peptide in solution
Target sequence in this assay (P01024 23-1663 limits assumed): as the sequence (P01024 23-1663) above

[5] = target: C3 protein (MST affinity assay) (Homo sapiens (Human)) (UniProt P01024); assay: MST (Monolith NT.115), retest; fluorescently labeled peptide, C3 protein titrated
Chain of C3 protein (MST affinity assay) (Homo sapiens (Human)) (P01024 23-667 limits assumed, form in doubt, chain 1 of 2): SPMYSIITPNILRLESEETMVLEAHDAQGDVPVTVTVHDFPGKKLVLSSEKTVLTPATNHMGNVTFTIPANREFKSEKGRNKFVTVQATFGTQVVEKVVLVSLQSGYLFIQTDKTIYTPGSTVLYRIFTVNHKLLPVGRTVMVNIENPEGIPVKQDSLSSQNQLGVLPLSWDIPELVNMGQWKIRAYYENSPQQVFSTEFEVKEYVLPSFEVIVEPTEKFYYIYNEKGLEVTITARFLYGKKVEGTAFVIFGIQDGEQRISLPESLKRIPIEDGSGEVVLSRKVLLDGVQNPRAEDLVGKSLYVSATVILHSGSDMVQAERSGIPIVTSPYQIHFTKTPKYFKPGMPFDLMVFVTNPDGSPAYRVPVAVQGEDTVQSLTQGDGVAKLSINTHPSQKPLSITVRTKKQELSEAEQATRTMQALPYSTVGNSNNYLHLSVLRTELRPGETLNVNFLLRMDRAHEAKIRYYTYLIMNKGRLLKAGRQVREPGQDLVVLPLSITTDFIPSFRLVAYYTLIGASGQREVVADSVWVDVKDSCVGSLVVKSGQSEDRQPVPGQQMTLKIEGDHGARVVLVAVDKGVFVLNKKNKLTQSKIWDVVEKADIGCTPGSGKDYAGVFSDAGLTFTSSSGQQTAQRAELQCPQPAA
Chain of C3 protein (MST affinity assay) (Homo sapiens (Human)) (P01024 672-1663 limits assumed, form in doubt, chain 2 of 2): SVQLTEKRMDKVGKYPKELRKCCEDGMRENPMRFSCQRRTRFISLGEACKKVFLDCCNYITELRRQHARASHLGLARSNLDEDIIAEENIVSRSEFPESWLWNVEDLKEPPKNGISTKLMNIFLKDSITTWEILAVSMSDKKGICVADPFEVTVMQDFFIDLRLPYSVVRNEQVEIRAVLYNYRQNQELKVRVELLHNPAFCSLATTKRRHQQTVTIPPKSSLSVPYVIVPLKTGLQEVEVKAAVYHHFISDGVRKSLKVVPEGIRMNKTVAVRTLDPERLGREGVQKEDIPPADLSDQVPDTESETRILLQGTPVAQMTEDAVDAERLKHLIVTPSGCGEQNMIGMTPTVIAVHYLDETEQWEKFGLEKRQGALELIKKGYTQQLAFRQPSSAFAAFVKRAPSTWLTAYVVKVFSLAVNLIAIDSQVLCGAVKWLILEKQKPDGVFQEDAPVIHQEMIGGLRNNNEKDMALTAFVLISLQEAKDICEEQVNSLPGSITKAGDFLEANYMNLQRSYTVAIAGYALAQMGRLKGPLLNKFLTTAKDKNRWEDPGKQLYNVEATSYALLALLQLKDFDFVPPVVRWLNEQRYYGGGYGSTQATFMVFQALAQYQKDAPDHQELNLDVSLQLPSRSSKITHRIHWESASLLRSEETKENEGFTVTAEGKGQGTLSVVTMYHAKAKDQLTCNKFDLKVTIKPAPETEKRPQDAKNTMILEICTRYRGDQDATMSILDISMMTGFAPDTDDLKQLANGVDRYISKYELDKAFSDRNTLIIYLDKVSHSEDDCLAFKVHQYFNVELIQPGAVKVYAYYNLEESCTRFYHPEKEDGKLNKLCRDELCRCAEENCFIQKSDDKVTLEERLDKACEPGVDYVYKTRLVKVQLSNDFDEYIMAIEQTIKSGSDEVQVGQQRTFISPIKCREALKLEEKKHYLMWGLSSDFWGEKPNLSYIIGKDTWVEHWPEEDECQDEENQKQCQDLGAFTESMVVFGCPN

[6] = target: C3 protein (MST affinity assay) (Homo sapiens (Human)) (UniProt P01024); assay: MST (Monolith NT.115), fluorescently labeled peptide ~200 nM, C3 protein titrated from 0.25 uM

| pKd [1] | kon [1] | koff [1] | IC50 (µm), classical pathway complement inhibition assay (ELISA, C3b/iC3b/C3d deposition from human plasma) [3] | Compound | other results |
| --- | --- | --- | --- | --- | --- |
| 5.50 | 15400 M⁻¹ s⁻¹ | 0.0492 s⁻¹ |  | CC[C@H](C)[C@H](NC(C)=O)C(=O)N[C@H]1CSSC[C@@H](C(=O)N[C@H](C(N)=O)[C@@H](C)O)NC(=O)[C@H](CCCNC(=N)N)NC(=O)[C@H](Cc2c[nH]cn2)NC(=O)C(C)(C)NC(=O)CNC(=O)[C@H](Cc2ccc3ccccc3c2)NC(=O)[C@H](CC(=O)O)NC(=O)[C@H](CCC(N)=O)NC(=O)[C@H](Cc2cn(C)c3ccccc23)NC(=O)[C@H](C(C)C)NC1=O [SEQ ID NO.1, Ac-ICV-W(CH3)-QD-2Nal -G-Aib-HRCT-NH2(C-C)] (Ac-ICV[Trp(1-Me)]QD[2Nal]G[Aib]HRCT-NH2; disulfide 2-12) |  |
|  | 393000 M⁻¹ s⁻¹ | 0.0179 s⁻¹ |  | CC[C@H](C)[C@H](NC(C)=O)C(=O)N[C@H]1CSSC[C@@H](C(=O)N[C@H](C(N)=O)[C@@H](C)O)NC(=O)[C@H](CCCNC(=N)N)NC(=O)[C@H](Cc2c[nH]cn2)NC(=O)C(C)(C)NC(=O)CNC(=O)C(Cc2c[nH]c3ccc(F)cc23)NC(=O)[C@H](CC(=O)O)NC(=O)[C@H](CCC(N)=O)NC(=O)[C@H](Cc2c[nH]c3ncccc23)NC(=O)[C@H](C(C)C)NC1=O (some centres unmarked) [SEQ ID NO.2, Ac-ICV-AzaTrp-QD-5F-Trp-G-Aib-HRCT-NH2(C-C)] (Ac-ICV[Trp(7-aza)]QD[ξTrp(5-F)]G[Aib]HRCT-NH2; disulfide 2-12) | pIC50 [2]: 6.04 |
| 7.34 | 387000 M⁻¹ s⁻¹ | 0.0176 s⁻¹ |  | CC[C@H](C)[C@H](NC(C)=O)C(=O)N[C@H]1CSSC[C@@H](C(=O)N[C@H](C(N)=O)[C@@H](C)O)NC(=O)[C@H](CCCNC(=N)N)NC(=O)[C@H](Cc2c[nH]cn2)NC(=O)C(C)(C)NC(=O)CNC(=O)C(Cc2c[nH]c3ccc(F)cc23)NC(=O)[C@H](CC(=O)O)NC(=O)[C@H](CCC(N)=O)NC(=O)[C@H](Cc2ccc3ccccc3c2)NC(=O)[C@H](C(C)C)NC1=O (some centres unmarked) [SEQ ID NO.3, Ac-ICV-2Nal-QD-5F-Trp-G-Aib-HRCT-NH2(C-C)] (Ac-ICV[2Nal]QD[ξTrp(5-F)]G[Aib]HRCT-NH2; disulfide 2-12) | pKd (C3 protein): 7.45 |
|  | 112000 M⁻¹ s⁻¹ | 0.0393 s⁻¹ |  | CC[C@@H]1NC(=O)[C@@H](NC(=O)[C@@H](NC(C)=O)[C@@H](C)CC)CSSC[C@@H](C(=O)N[C@H](C(N)=O)[C@@H](C)O)NC(=O)[C@H](CCCNC(=N)N)NC(=O)[C@H](Cc2c[nH]cn2)NC(=O)C2(CCNCC2)NC(=O)CNC(=O)C(Cc2c[nH]c3ccc(F)cc23)NC(=O)[C@H](CC(=O)O)NC(=O)[C@H](CCC(N)=O)NC(=O)[C@H](Cc2cn(C)c3ccccc23)NC1=O (some centres unmarked) [SEQ ID NO.4, Ac-IC-Abu-W(CH3)-QD-5F-Trp -G-Pip-HRCT-NH2(C-C)] (Ac-IC[Abu][Trp(1-Me)]QD[ξTrp(5-F)]G[Api]HRCT-NH2; disulfide 2-12) | pIC50 [2]: 5.65 |
| 5.65 | 13100 M⁻¹ s⁻¹ | 0.0296 s⁻¹ |  | CC[C@@H]1NC(=O)[C@@H](NC(=O)[C@@H](NC(C)=O)[C@@H](C)CC)CSSC[C@@H](C(=O)N[C@H](C(N)=O)[C@@H](C)O)NC(=O)[C@H](CCCNC(=N)N)NC(=O)[C@H](Cc2c[nH]cn2)NC(=O)C(C)(C)NC(=O)CNC(=O)C(Cc2c[nH]c3ccc(F)cc23)NC(=O)[C@H](CC(=O)O)NC(=O)[C@H](CCC(N)=O)NC(=O)[C@H](Cc2ccc3ccccc3c2)NC1=O (some centres unmarked) [SEQ ID NO.5, Ac-IC-Abu- 2Nal -QD-5F-Trp -G-Aib-HRCT-NH2(C-C)] (Ac-IC[Abu][2Nal]QD[ξTrp(5-F)]G[Aib]HRCT-NH2; disulfide 2-12) |  |
| 4.40 | 925 M⁻¹ s⁻¹ | 0.0369 s⁻¹ |  | CC[C@H](C)[C@H](NC(C)=O)C(=O)N[C@H]1CSSC[C@@H](C(=O)N[C@H](C(N)=O)[C@@H](C)O)NC(=O)[C@H](CCCNC(=N)N)NC(=O)[C@H](Cc2c[nH]cn2)NC(=O)C(C)(C)NC(=O)CNC(=O)C(Cc2c[nH]c3ccc(F)cc23)NC(=O)[C@H](CC(=O)O)NC(=O)[C@H](CCC(N)=O)NC(=O)[C@H](Cc2ccc(C(=O)c3ccccc3)cc2)NC(=O)[C@H](Cc2ccc(O)cc2)NC1=O (stereo partly drawn) [SEQ ID NO.6, Ac-IC-Tyr-Bpa-QD-5F-Trp -G-Aib-HRCT-NH2(C-C)] (Ac-ICY[Bpa]QD[ξTrp(5-F)]G[Aib]HRCT-NH2; disulfide 2-12) |  |
|  |  |  | 920 nM | SEQ ID NO.2: Ac-ICV-AzaTrp-QD-5F-Trp-G-Aib-HRCT-NH2 (C-C) (peptide) | pKd [4]: 7.34; pKd [5]: 7.61; pKd [6]: 6.94 |
|  |  |  | 1460 nM | SEQ ID NO.3: Ac-ICV-2Nal-QD-5F-Trp-G-Aib-HRCT-NH2 (C-C) (peptide) |  |
|  |  |  | 2260 nM | SEQ ID NO.4: Ac-IC-Abu-W(CH3)-QD-5F-Trp-G-Pip-HRCT-NH2 (C-C) (peptide) | pKd [4]: 6.45 |
